Results taken from patent publication US20240116971A1, “NMN AND DERIVATIVES FOR ITS USE IN THE TREATMENT OF DEPRESSION AND/OR ANXIETY IN PATIENTS HAVING A FORM OF PARKINSONISM” (Nuvamid SA, priority 2021, published 2024).

Test system: patient having MSA
Assay: UMSARS questionary before and after 6 months of NMN (beta) in one patient
Type: in vivo, human
Protocol: A person presenting with parkinsonism was given NMN (beta) for 6 months. […] They indicated difficulties to get out of bed in the morning and feeling low and depressed during the day. Administration of 125 mg of NMN (beta) as an oral tablet occurred once per day in the morning. The patient has taken the […] questionary before the beginning of the study (D0) and after 6 months of treatment.

[1] = 6 months vs D0, daily administration

Compound: NC(=O)c1ccc[n+]([C@@H]2O[C@H](COP(=O)(O)O)[C@@H](O)[C@H]2O)c1 [beta-NMN, nicotinamide mononucleotide]
- items of the UMSARS questionary improved (6 months vs D0, 125 mg/day oral): improved items 1, 13, 14, 16-18, 22, 26, 28, 29, 34-36
- clinical signs related to motricity [1]: did not improve most of the clinical signs related to motricity apart from items 1, 13, 14 and 16
- symptoms related to the depression [1]: improved the symptoms related to the depression
